Biological target: T1, Catechol O-methyltransferase (Sus scrofa, UniProt Q99028)
T1 sequence (Q99028 whole entry): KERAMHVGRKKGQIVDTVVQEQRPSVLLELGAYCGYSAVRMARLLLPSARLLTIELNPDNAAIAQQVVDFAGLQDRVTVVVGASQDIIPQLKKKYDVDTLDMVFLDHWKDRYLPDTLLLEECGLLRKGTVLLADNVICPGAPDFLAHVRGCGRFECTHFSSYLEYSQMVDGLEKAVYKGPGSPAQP
Assay: Inhibitory activity against catechol O-methyltransferase
Conditions: read-out: I50

IC50 [mM]	SMILES
10	C[S+](CCCCc1c[nH]c2ccccc12)C[C@H]1O[C@@H](n2cnc3c(N)ncnc32)[C@H](O)[C@@H]1O (some centres not stated)
> 10	C[S+](CCCc1c[nH]c2ccccc12)C[C@H]1O[C@@H](n2cnc3c(N)ncnc32)[C@H](O)[C@@H]1O (some centres not stated)

— ChEMBL document CHEMBL1122373, “Multisubstrate adducts as potential inhibitors of S-adenosylmethionine dependent methylases: inhibition of indole N-methyltransferase by (5'-deoxyadenosyl)[3-(3-indolyl)prop-1-yl]methylsulfonium and (5'-deoxyadenosyl)[4-(3-indolyl)but-1-yl]methylsulfonium salts” (J Med Chem, 1983)
